Measurements taken from US20160106708A1, “USE OF ANTIOXIDANTS FOR THE TREATMENT OF COGNITIVE AND BEHAVIOURAL DISORDERS IN INDIVIDUALS WITH FRAGILE X SYNDROME” (Servicio Andaluz de Salud, priority 2010, published 2016).

Legend:
[1] = system: patients with Fragile X syndrome; conditions: cited from earlier work; for Efficacy on symptoms in patients with Fragile X Syndrome: published trials
FMR1-KO mice [2] = experiment: Open field, locomotive activity (hyperactivity); type: in vivo, mouse; conditions: chronic treatment, 15-minute period, treated vs FMR1-KO without treatment, saline control and Tianeptine (tianeptine group: FMR1-KO vs WT)
Text: FIG. 1. Open-field distance travelled by the mice in a 15-minute period of time for the different treatments.
In all the groups of WT mice, locomotion was maintained without significant variations, about 4000 cm of distance travelled (FIG. 1); this test was used to check the mice's hyperactivity.

FMR1-KO mice [3] = experiment: Raised cross-shaped maze (anxiety); type: in vivo, mouse; conditions: chronic treatment, 5-minute period, treated vs FMR1-KO without treatment, saline control and Tianeptine (Tianeptine group: FMR1-KO vs WT)
Text: FIG. 2. Percentage permanence time in the open arm of the raised cross-shaped maze in a 5-minute period of time for the different treatments.
This test is used to determine the anxiety of the animal model, under baseline and treated conditions.

FMR1-KO mice [4] = experiment: Measurement of corticosterone in serum; type: in vivo, mouse; conditions: FMR1-KO mice vs WT controls under the same treatment
Text: FIG. 3. Concentration of corticosterone in mouse serum (ng/ml).

FMR1-KO mice [5] = experiment: Level of lipid peroxidation (TBARS) in cerebral membranes; type: in vivo, mouse; conditions: FMR1-KO vs WT under treatment; tianeptine: both genotypes vs saline control
Text: FIG. 4. Concentration of TBARS in mouse cerebral membranes (nmol/mg protein).

FMR1-KO mice [6] = experiment: Reduced glutathione (GSH) in brain extract; type: in vivo, mouse; conditions: vs saline control
Text: FIG. 5. Concentration of GSH in mouse brain extract (μmol/g protein). FMR1-KO (n=8): black bars and WT (n=9): white bars. *p<0.05 FMR1-KO vs. WT. # p<0.05 FMR1-KO vs. FMR1-KO. † p<0.05 WT vs. WT.

FMR1-KO mice [7] = experiment: Oxidised glutathione (GSSG, % of GSH) in brain extract; type: in vivo, mouse; conditions: vs saline and naive controls
Text: FIG. 6. Percentage of GSSG with respect to GSH in mouse brain extract. FMR1-KO (n=8): black bars and WT (n=9): white bars. *p<0.05 FMR1-KO vs. WT. # p<0.05 FMR1-KO vs. FMR1-KO. † p<0.05 WT vs. WT.

Fmr1-KO mouse = conditions: chronic treatment; cited from earlier work
children with Autism = conditions: 18 children with Autism; cited from earlier work
[8] = human; cited from earlier work
[9] = system: patients with Alzheimer's disease; conditions: cited from earlier work
[10] = system: transgenic mouse model for Alzheimer's disease; conditions: cited from earlier work
[11] = system: cytotoxicity induced by L-buthionine-sulfoximine (BSO); conditions: BSO causes decrease in intracellular glutathione; cited from earlier work

Q: Which “Efficacy on symptoms in patients with Fragile X Syndrome” value (shortened to “Efficacy on symptoms in patients”) [1] does the source give for `COC(=O)N1CC[C@@H]2[C@H]1CCC[C@@]2(O)C#Cc1cccc(C)c1` [AFQ056] here?
A: The value was “demonstrates its effectiveness on the behavioural and learning problems”.

Q: With `CN1CC(=O)NC1=NC(=O)Nc1cccc(Cl)c1` [Fenoban] as the compound, how does the “Efficacy on symptoms in patients” value [1] read?
A: The value was “efficacy”.

Q: Which “Efficacy on symptoms in patients” value [1] does the source give for `CC(=O)O[C@H](CC(=O)[O-])C[N+](C)(C)C` [L-acetylcarnitine] here?
A: The value was “efficacy in reducing hyperactivity and improving social relations”.

Q: Which “Open-field total distance travelled” value (FMR1-KO mice [2]) does the source give for `COc1ccc2[nH]cc(CCNC(C)=O)c2c1` [Melatonin] here?
A: Its value is “lower (p<0.05)”.

Q: What about the “Percentage permanence time in the open arm of the raised cross-shaped maze” value (FMR1-KO mice [3]) of the same compound?
A: The value was “lower (p<0.05)”.

Q: What about the “Concentration of corticosterone in serum” value (FMR1-KO mice [4]) of the same compound?
A: The value was “maintained the same levels of corticosterone as compared to the WT controls”.

Q: And the “Levels of TBARS in cerebral membranes” value (FMR1-KO mice [5])?
A: Its value is “normalises the levels of TBARS”.

Q: And the “GSH in brain extract” value (FMR1-KO mice [6])?
A: Its value is “higher values of GSH”.

Q: What about the “Percentage of GSSG with respect to GSH in brain extract” value (FMR1-KO mice [7]) of the same compound?
A: Its value is “normalised the values of GSSG”.

Q: And the “Efficacy on symptoms in patients” value [1]?
A: The value was “reduce the sleep problems”.

Q: And the “Effect on parameters characteristic of the syndrome (hyperactivity, anxiety disorder, cognitive deficit)” value (Fmr1-KO mouse)?
A: Its value is “normalising several parameters characteristic of the syndrome”.

Q: For `CC12CC3CC(C)(C1)CC(N)(C3)C2` [Nemantine], which “Patients showing symptoms of improvement” value ([1]; of 6 affected patients) is on record?
A: The value was 4.

Q: With `CN1c2ccccc2C(NCCCCCCC(=O)O)c2ccc(Cl)cc2S1(=O)=O` (centres unmarked) [Tianeptine] as the compound, how does the “Open-field total distance travelled” value (FMR1-KO mice [2]) read?
A: The value was “greater total travelled distance”.

Q: For `O=C1O[C@H]([C@@H](O)CO)C(O)=C1O` [Vitamin C, Ascorbic Acid], which “Effect on symptoms of Autism” value (children with Autism) is on record?
A: Its value is “significant decrease of some symptoms”.

Q: What about the Half-life [8] of the same compound?
A: The Half-life was 16 days.

Q: With `Cc1c(C)c2c(c(C)c1O)CC[C@@](C)(CCC[C@H](C)CCC[C@H](C)CCCC(C)C)O2` [Vitamin E, alpha-Tocopherol] as the compound, how does the “Open-field total distance travelled” value (FMR1-KO mice [2]) read?
A: The value was “lower (p<0.05)”.

Q: What about the “Percentage permanence time in the open arm of the raised cross-shaped maze” value (FMR1-KO mice [3]) of the same compound?
A: Its value is “lower (p<0.05)”.

Q: And the “Concentration of corticosterone in serum” value (FMR1-KO mice [4])?
A: The value was “maintained the same levels of corticosterone as compared to the WT controls”.

Q: What about the “Levels of TBARS in cerebral membranes” value (FMR1-KO mice [5]) of the same compound?
A: Its value is “normalises the levels of TBARS”.

Q: What about the “GSH in brain extract” value (FMR1-KO mice [6]) of the same compound?
A: Its value is “higher values of GSH”.

Q: And the “Percentage of GSSG with respect to GSH in brain extract” value (FMR1-KO mice [7])?
A: The value was “normalised the values of GSSG”.

Q: And the “Effect on parameters characteristic of the syndrome (hyperactivity, anxiety disorder, cognitive deficit)” value (Fmr1-KO mouse)?
A: Its value is “normalising several parameters characteristic of the syndrome”.

Q: What about the “Effect on mental deterioration” value [9] of the same compound?
A: Its value is “capable of delaying mental deterioration”.

Q: What about the “Lipid peroxidation and amyloid deposition” value [10] of the same compound?
A: The value was “reduced lipid peroxidation and amyloid deposition”.

Q: And the “Protection against BSO-induced cytotoxicity” value [11]?
A: Its value is “significant protection”.

Q: Which “Efficacy on symptoms in patients” value [1] does the source give for `COc1cc2c(cc1OC)C(=O)C(CC1CCN(Cc3ccccc3)CC1)C2` (centres unmarked) [donezepil] here?
A: Its value is “significantly improves cognitive and behavioural functions”.
